IC50 data for 22 compounds are collected here from patent publication US20240116988A1, “ANTI-ROR1 MACROCYCLIC PEPTIDES AND COMPOSITIONS” (BRISTOL-MYERS SQUIBB COMPANY, priority 2022, published 2024).

Positions of bridges follow the written chain, without caps; N, C: chain ends. Non-standard residues stand in square brackets, D forms with d. Residues, ends and D or L forms follow the SMILES beside them. ξ: configuration not given here. 2Nal = N[C@@H](Cc1ccc2ccccc2c1)C(=O)O; NMeF = CN[C@@H](Cc1ccccc1)C(=O)O; NMeL = CN[C@@H](CC(C)C)C(=O)O; Thr(3ξ) = CC(O)[C@H](N)C(=O)O; Phg = N[C@H](C(=O)O)c1ccccc1; ξY = NC(Cc1ccc(O)cc1)C(=O)O; NMeA = CN[C@@H](C)C(=O)O; Nle = CCCC[C@H](N)C(=O)O; ξF = NC(Cc1ccccc1)C(=O)O; ξL = CC(C)CC(N)C(=O)O; ξC = NC(CS)C(=O)O; ξA = CC(N)C(=O)O; Sar = CNCC(=O)O

T1 sequence (Q01973 30-937): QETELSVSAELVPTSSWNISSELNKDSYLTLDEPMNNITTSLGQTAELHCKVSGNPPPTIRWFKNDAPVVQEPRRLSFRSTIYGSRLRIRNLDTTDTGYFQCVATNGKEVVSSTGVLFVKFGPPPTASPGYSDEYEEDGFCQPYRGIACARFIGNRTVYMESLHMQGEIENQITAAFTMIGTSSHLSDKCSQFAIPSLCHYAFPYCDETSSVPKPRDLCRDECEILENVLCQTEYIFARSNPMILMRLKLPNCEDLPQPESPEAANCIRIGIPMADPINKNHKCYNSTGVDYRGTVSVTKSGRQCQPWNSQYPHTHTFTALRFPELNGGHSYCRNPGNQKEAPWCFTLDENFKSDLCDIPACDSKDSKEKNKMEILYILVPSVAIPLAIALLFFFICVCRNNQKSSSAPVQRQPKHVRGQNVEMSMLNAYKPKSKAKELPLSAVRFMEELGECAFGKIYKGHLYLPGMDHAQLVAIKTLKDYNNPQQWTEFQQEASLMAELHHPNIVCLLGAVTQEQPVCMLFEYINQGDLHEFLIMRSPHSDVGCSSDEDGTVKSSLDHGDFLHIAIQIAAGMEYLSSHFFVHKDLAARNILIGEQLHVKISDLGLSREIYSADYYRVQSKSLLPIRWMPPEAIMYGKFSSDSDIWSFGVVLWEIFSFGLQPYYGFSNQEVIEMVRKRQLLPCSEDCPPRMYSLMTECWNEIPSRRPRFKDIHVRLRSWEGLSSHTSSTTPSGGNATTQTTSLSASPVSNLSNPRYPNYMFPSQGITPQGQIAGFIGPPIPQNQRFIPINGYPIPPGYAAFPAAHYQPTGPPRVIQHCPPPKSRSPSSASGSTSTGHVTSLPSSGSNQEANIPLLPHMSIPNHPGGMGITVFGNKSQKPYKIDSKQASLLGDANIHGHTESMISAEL

The test addresses T1, human ROR1 (Homo sapiens, UniProt Q01973).
T1 construct: host or cells: HEK 293T cells, Tet-on system induced with doxycycline
As to the kind of experiment: ROR1 high content cell-based binding assay. Particulars: read-out: ROR1 Binding 293T Human HC Cell Based Assay IC50. The method in brief:
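Doxycycline-induced 293T cells expressing human ROR1, seeded overnight, were treated with compound plus 5-FAM-labeled ROR1-binding probe peptide (30 nM final) for 1 h at 37 °C. After washing and formaldehyde/Hoechst fixation, cell-bound probe fluorescence was read by high-content imaging.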
A word on the IC50: it is the concentration that gives 50% inhibition. As to `CC(C)C[C@@H]1NC(=O)[C@H](Cc2ccc(O)cc2)NC(=O)[C@H](Cc2ccc3ccccc3c2)NC(=O)CSC[C@@H](C(=O)NCC(N)=O)NC(=O)[C@H](CC(C)C)NC(=O)[C@H](Cc2ccccc2)N(C)C(=O)[C@H](Cc2ccc(O)cc2)NC(=O)[C@H](Cc2c[nH]c3ccccc23)NC(=O)CNC(=O)[C@H](CO)NC(=O)[C@H](Cc2ccc(O)cc2)NC(=O)[C@H](C(C)C)NC1=O` [Example 1092] ({CH2CO}-[2Nal]YLVYSGWY[NMeF]LCG-NH2; thioether N-12), the IC50 was found to be 43 nM.

Turning to `CC(C)C[C@@H]1NC(=O)[C@H](Cc2ccc(O)cc2)NC(=O)[C@H](c2ccccc2)NC(=O)CSC[C@@H](C(=O)NCC(N)=O)NC(=O)[C@H](CC(C)C)NC(=O)[C@H](Cc2ccccc2)N(C)C(=O)[C@H](Cc2ccc(O)cc2)NC(=O)[C@H](Cc2c[nH]c3ccccc23)NC(=O)CNC(=O)[C@H](CO)NC(=O)[C@H](Cc2ccc(O)cc2)NC(=O)[C@H](C(C)C)NC1=O` [Example 1093] ({CH2CO}-[Phg]YLVYSGWY[NMeF]LCG-NH2; thioether N-12), the IC50 stood at 324 nM.

Consider `CC(C)C[C@@H]1NC(=O)[C@H](Cc2c[nH]c3ccccc23)NC(=O)[C@H](Cc2ccc(O)cc2)NC(=O)[C@H](Cc2c[nH]c3ccccc23)NC(=O)CNC(=O)[C@H](CC(=O)O)NC(=O)[C@H](Cc2ccc(O)cc2)NC(=O)[C@H](C(C)C)NC(=O)[C@@H]2CCCN2C(=O)[C@H](Cc2ccc(O)cc2)NC(=O)[C@H](Cc2ccccc2)NC(=O)CSC[C@@H](C(N)=O)NC1=O` [Example 1094] ({CH2CO}-FYPVYDGWYWLC-NH2; thioether N-12), for which the IC50 came to 14 nM.

In the case of `CC(C)C[C@@H]1NC(=O)[C@H](Cc2c[nH]c3ccccc23)NC(=O)[C@H](Cc2ccc(O)cc2)NC(=O)[C@H](Cc2c[nH]c3ccccc23)NC(=O)CNC(=O)[C@H](CO)NC(=O)[C@H](Cc2ccc(O)cc2)NC(=O)[C@H](C(C)C)NC(=O)[C@@H]2CCCN2C(=O)[C@H](Cc2ccc(O)cc2)NC(=O)[C@H](Cc2ccccc2)NC(=O)CSC[C@@H](C(N)=O)NC1=O` [Example 1095] ({CH2CO}-FYPVYSGWYWLC-NH2; thioether N-12), the IC50 is 11 nM.

In the case of `CCCC[C@@H]1NC(=O)[C@H](Cc2ccc(O)cc2)NC(=O)[C@H](Cc2c[nH]c3ccccc23)NC(=O)[C@H](C)N(C)C(=O)[C@H](CCCNC(=N)N)NC(=O)[C@H](CO)NC(=O)[C@H](CO)NC(=O)[C@H](Cc2c[nH]c3ccccc23)NC(=O)[C@H](Cc2ccc(O)cc2)NC(=O)[C@H](Cc2ccccc2)NC(=O)CSC[C@@H](C(N)=O)NC(=O)[C@H](CC(C)C)N(C)C1=O` [Example 1096] ({CH2CO}-FYWSSR[NMeA]WY[Nle][NMeL]C-NH2; thioether N-12), the IC50 came to 4 nM.

As for `CC(C)[C@@H]1NC(=O)CN(C)C(=O)[C@H](CCCNC(=N)N)NC(=O)[C@H](Cc2ccccc2)NC(=O)CSC[C@@H](C(N)=O)NC(=O)[C@H](C(C)C)NC(=O)[C@H](Cc2c[nH]c3ccccc23)NC(=O)[C@H](Cc2ccc(O)cc2)NC(=O)[C@H](Cc2c[nH]c3ccccc23)NC(=O)CNC(=O)[C@H](Cc2c[nH]c3ccccc23)NC(=O)[C@H](CCCNC(=N)N)NC1=O` [Example 1097] ({CH2CO}-FR[Sar]VRWGWYWVC-NH2; thioether N-12), the IC50 came to 63 nM.

Take `CC(C)C[C@@H]1NC(=O)[C@H](CC(N)=O)NC(=O)[C@H](Cc2ccccc2)N(C)C(=O)CNC(=O)[C@H](Cc2ccc(O)cc2)NC(=O)[C@H](Cc2ccccc2)NC(=O)CSC[C@@H](C(=O)NCC(N)=O)NC(=O)[C@H](Cc2c[nH]c3ccccc23)NC(=O)[C@H](Cc2ccc(O)cc2)NC1=O` [Example 1100] ({CH2CO}-FYG[NMeF]NLYWCG-NH2; thioether N-9): the IC50 was determined as 121 nM.

`CC(C)C[C@@H]1NC(=O)[C@H](Cc2ccccc2)NC(=O)[C@H](Cc2ccccc2)N(C)C(=O)CNC(=O)[C@H](Cc2ccc(O)cc2)NC(=O)[C@H](Cc2ccccc2)NC(=O)CSC[C@@H](C(N)=O)NC(=O)[C@H](Cc2c[nH]c3ccccc23)NC(=O)[C@H](Cc2ccc(O)cc2)NC1=O` [Example 1102] ({CH2CO}-FYG[NMeF]FLYWC-NH2; thioether N-9): the concentration for half-maximal inhibition (IC50) came out at 97 nM.

Consider `CN1C(=O)CNC(=O)[C@H](Cc2ccc(O)cc2)NC(=O)[C@H](Cc2ccccc2)NC(=O)CSC[C@@H](C(N)=O)NC(=O)[C@H](Cc2c[nH]c3ccccc23)NC(=O)[C@H](Cc2ccc(O)cc2)NC(=O)[C@H](Cc2ccccc2)NC(=O)[C@H](CC(N)=O)NC(=O)[C@@H]1Cc1ccccc1` [Example 1103] ({CH2CO}-FYG[NMeF]NFYWC-NH2; thioether N-9), for which the IC50 stood at 923 nM.

For the compound `CC(C)C[C@@H]1NC(=O)[C@H](CC(N)=O)NC(=O)[C@H](Cc2ccccc2)N(C)C(=O)CNC(=O)[C@H](Cc2ccc(O)cc2)NC(=O)[C@H](Cc2ccccc2)NC(=O)CSCC(C(N)=O)NC(=O)[C@H](Cc2c[nH]c3ccccc23)NC(=O)[C@H](Cc2ccccc2)NC1=O` (stereo partly shown) [Example 1104] ({CH2CO}-FYG[NMeF]NLFW[ξC]-NH2; thioether N-9), the IC50 came out at 31 nM.

On to `CC(C)C[C@@H]1NC(=O)CNC(=O)[C@H](Cc2ccccc2)N(C)C(=O)CNC(=O)[C@H](Cc2ccc(O)cc2)NC(=O)[C@H](Cc2ccccc2)NC(=O)CSC[C@@H](C(N)=O)NC(=O)[C@H](Cc2c[nH]c3ccccc23)NC(=O)[C@H](Cc2ccc(O)cc2)NC1=O` [Example 1105] ({CH2CO}-FYG[NMeF]GLYWC-NH2; thioether N-9), for which the 50% inhibitory concentration (IC50) came out at 675 nM.

On to `CC(C)C[C@@H]1NC(=O)[C@H](CC(C)C)NC(=O)[C@H](Cc2ccccc2)N(C)C(=O)CNC(=O)[C@H](Cc2ccc(O)cc2)NC(=O)[C@H](Cc2ccccc2)NC(=O)CSC[C@@H](C(N)=O)NC(=O)[C@H](Cc2c[nH]c3ccccc23)NC(=O)[C@H](Cc2ccc(O)cc2)NC1=O` [Example 1106] ({CH2CO}-FYG[NMeF]LLYWC-NH2; thioether N-9), for which the IC50 was 483 nM.

`CC(C)C[C@@H]1NC(=O)C(C)NC(=O)[C@H](Cc2ccccc2)N(C)C(=O)CNC(=O)[C@H](Cc2ccc(O)cc2)NC(=O)[C@H](Cc2ccccc2)NC(=O)CSC[C@@H](C(N)=O)NC(=O)[C@H](Cc2c[nH]c3ccccc23)NC(=O)[C@H](Cc2ccc(O)cc2)NC1=O` (stereo partly shown) [Example 1107] ({CH2CO}-FYG[NMeF][ξA]LYWC-NH2; thioether N-9): the IC50 was 553 nM.

In the case of `CC(C)C[C@@H]1NC(=O)[C@H](CC(N)=O)NC(=O)[C@H](Cc2ccccc2)N(C)C(=O)CNC(=O)[C@H](Cc2ccccc2)NC(=O)[C@H](Cc2ccccc2)NC(=O)CSC[C@@H](C(N)=O)NC(=O)[C@H](Cc2c[nH]c3ccccc23)NC(=O)[C@H](Cc2ccc(O)cc2)NC1=O` [Example 1108] ({CH2CO}-FFG[NMeF]NLYWC-NH2; thioether N-9), the IC50 was found to be 404 nM.

As for `CSCC[C@@H]1NC(=O)[C@H](Cc2ccccc2)N(C)C(=O)CNC(=O)[C@H](Cc2ccc(O)cc2)NC(=O)[C@H](Cc2ccccc2)NC(=O)CSC[C@@H](C(N)=O)NC(=O)[C@H](Cc2c[nH]c3ccccc23)NC(=O)[C@H](Cc2ccc(O)cc2)NC(=O)[C@H](CC(C)C)NC1=O` [Example 1109] ({CH2CO}-FYG[NMeF]MLYWC-NH2; thioether N-9), the half-maximal inhibitory concentration (IC50) worked out at 574 nM.

For `CC(C)C[C@@H]1NC(=O)[C@H](CCC(N)=O)NC(=O)[C@H](Cc2ccccc2)N(C)C(=O)CNC(=O)[C@H](Cc2ccc(O)cc2)NC(=O)[C@H](Cc2ccccc2)NC(=O)CSC[C@@H](C(N)=O)NC(=O)[C@H](Cc2c[nH]c3ccccc23)NC(=O)[C@H](Cc2ccc(O)cc2)NC1=O` [Example 1110] ({CH2CO}-FYG[NMeF]QLYWC-NH2; thioether N-9), the IC50 worked out at 361 nM.

`CC(C)C[C@@H]1NC(=O)[C@H](CO)NC(=O)[C@H](Cc2ccccc2)N(C)C(=O)CNC(=O)[C@H](Cc2ccc(O)cc2)NC(=O)[C@H](Cc2ccccc2)NC(=O)CSC[C@@H](C(N)=O)NC(=O)[C@H](Cc2c[nH]c3ccccc23)NC(=O)[C@H](Cc2ccc(O)cc2)NC1=O` [Example 1111] ({CH2CO}-FYG[NMeF]SLYWC-NH2; thioether N-9): the half-inhibitory concentration (IC50) is 479 nM.

As to `CC(C)C[C@@H]1NC(=O)[C@H](Cc2ccc(O)cc2)NC(=O)[C@H](Cc2ccccc2)N(C)C(=O)CNC(=O)[C@H](Cc2ccc(O)cc2)NC(=O)C(Cc2ccccc2)NC(=O)CSC[C@@H](C(=O)NCC(N)=O)NC(=O)[C@H](Cc2c[nH]c3ccccc23)NC(=O)C(Cc2ccc(O)cc2)NC1=O` (stereo partly shown) [Example 1112] ({CH2CO}-[ξF]YG[NMeF]YL[ξY]WCG-NH2; thioether N-9), the half-maximal inhibitory concentration (IC50) came out at 147 nM.

Consider `CC(C)CC1NC(=O)[C@H](Cc2ccc(O)cc2)NC(=O)[C@H](Cc2ccccc2)NC(=O)CSC[C@@H](C(=O)NCC(N)=O)NC(=O)[C@H](Cc2ccccc2)N(C)C(=O)[C@H](Cc2ccc(O)cc2)NC(=O)[C@H](Cc2c[nH]c3ccccc23)NC(=O)C(Cc2ccc(O)cc2)NC(=O)[C@H](C(C)C)NC1=O` (stereo partly shown) [Example 1113] ({CH2CO}-FY[ξL]V[ξY]WY[NMeF]CG-NH2; thioether N-9), for which the IC50 is 100 nM.

On to `CC(C)C[C@@H]1NC(=O)[C@H](C(C)O)NC(=O)[C@H](Cc2ccccc2)N(C)C(=O)CNC(=O)[C@H](Cc2ccc(O)cc2)NC(=O)[C@H](Cc2ccccc2)NC(=O)CSC[C@@H](C(N)=O)NC(=O)[C@H](Cc2c[nH]c3ccccc23)NC(=O)[C@H](Cc2ccc(O)cc2)NC1=O` (stereo partly shown) [Example 1114] ({CH2CO}-FYG[NMeF][Thr(3ξ)]LYWC-NH2; thioether N-9), for which the IC50 stood at 470 nM.

As for `CC(C)C[C@@H]1NC(=O)[C@H](Cc2ccc(O)cc2)NC(=O)[C@H](Cc2ccccc2)N(C)C(=O)CNC(=O)[C@H](Cc2ccc(O)cc2)NC(=O)[C@H](Cc2ccccc2)NC(=O)CSC[C@@H](C(N)=O)NC(=O)[C@H](Cc2c[nH]c3ccccc23)NC(=O)[C@H](Cc2ccc(O)cc2)NC1=O` [Example 1115] ({CH2CO}-FYG[NMeF]YLYWC-NH2; thioether N-9), the IC50 came to 94 nM.

As to `CC(C)C[C@@H]1NC(=O)[C@@H](C)NC(=O)[C@H](Cc2ccccc2)N(C)C(=O)CNC(=O)[C@H](Cc2ccc(O)cc2)NC(=O)[C@H](Cc2ccccc2)NC(=O)CSC[C@@H](C(N)=O)NC(=O)[C@H](Cc2c[nH]c3ccccc23)NC(=O)[C@H](Cc2ccc(O)cc2)NC1=O` [Example 1116] ({CH2CO}-FYG[NMeF][dA]LYWC-NH2; thioether N-9), the half-inhibitory concentration (IC50) stood at 183 nM.
